From patent US3965109A, “Certain aryl amino pyridines” (priority 1971, dated 1976)

Legend:
Aphis fabae = assay: Pest toxicity test; type: in vivo; details: 0.1% by weight; broad bean; 2 days
[1] = tested on: Plutella maculipennis (diamond back moth larvae); assay: Pest toxicity test; type: in vivo; details: in vivo
[2] = tested on: Corynebacterium michiganense; assay: Antibacterial agar test (B2); type: cell-based; details: 50 ppm; 5 days
Method in brief: (§1)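 Bacterial growth on nutrient agar containing 50 ppm final test compound (added from an acetone solution or suspension) was scored 5 days after multipoint inoculation, using graded ratings. Plates were dried overnight before inoculation.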

Streptomyces scabies = assay: Antibacterial agar test (B7); type: cell-based; details: 50 ppm; 5 days
Megoura viceae = assay: Pest toxicity test; type: in vivo; details: 0.1% by weight; broad bean; 2 days
Xanthomonas malvacearum = assay: Antibacterial agar test (B3); type: cell-based; details: 50 ppm; 5 days
Method in brief: as §1

[3] = tested on: Aedes aegypti (mosquito larvae); assay: Pest toxicity test; type: in vivo; details: 0.01% by weight; water; 1 day
[4] = tested on: Meloidogyne incognita (nematodes); assay: Pest toxicity test; type: in vivo; details: 0.01% by weight; water; 1 day
[5] = tested on: Agrobacterium tumifaciens; assay: Antibacterial agar test (B1); type: cell-based; details: 50 ppm; 5 days
Uncinula necator (vine) = assay: Fungicidal test against foliar disease D (foliage spray plus soil drench); type: in vivo; details: 100 ppm spray and drench; 10 days
[6] = tested on: Tetranychus telarius (red spider mites, adults); assay: Pest toxicity test; type: in vivo; details: 0.1% by weight; French bean; 3 days
Pseudomonas syringae = assay: Antibacterial agar test (B6); type: cell-based; details: 50 ppm; 5 days
[7] = tested on: Plasmopara viticola (vine); assay: Fungicidal test against foliar disease C (foliage spray plus soil drench); type: in vivo; details: 100 ppm spray and drench; 10 days
[8] = tested on: Aedes aegypti (mosquito adults); assay: Pest toxicity test; type: in vivo; details: 0.01% by weight; plywood; 1 day
[9] = tested on: Pieris brassicae (cabbage white caterpillars); assay: Pest toxicity test; type: in vivo; details: 0.1% by weight, 2 days
[10] = tested on: Phytophthora infestans (tomato); type: in vivo; details: 100 ppm spray and drench; 3 days
[11] = tested on: Musca domestica (houseflies); assay: Pest toxicity test, contact test; type: in vivo; details: 0.1% by weight; milk/sugar; 2 days; flies sprayed directly
[12] = tested on: Phaedon cochleariae (mustard beetles); assay: Pest toxicity test; type: in vivo; details: in vivo
[13] = tested on: Tetranychus telarius (red spider mites, eggs); assay: Pest toxicity test; type: in vivo; details: 0.1% by weight; French bean; 3 days
[14] = tested on: Piricularia oryzae (rice); type: in vivo; details: 100 ppm spray and drench; 7 days
[15] = tested on: Puccinia recondita (wheat); assay: Fungicidal test against foliar disease A (foliage spray plus soil drench); type: in vivo; details: 100 ppm spray and drench; 10 days
Erwinia carotovora = assay: Antibacterial agar test (B4); type: cell-based; details: 50 ppm; 5 days
Xanthomonas oryzae = type: cell-based; details: 50 ppm; 5 days
[16] = tested on: Agriolimax reticulatus (slugs); assay: Molluscicidal activity test; type: in vivo, Agriolimax reticulatus (Mull); details: pellet with 4% by weight; 6 days; 10°C
Method in brief: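 Slugs were starved for 24 hours, then housed two per dish, in duplicate, under high humidity at 10°C. They fed on pellets dried to contain 4% w/w of test compound. Mortality was scored on day 6.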

Row | SMILES | Mortality grading (kill) (Aphis fabae) | Mortality grading (kill) [1] | Antibacterial activity grading B2 [2] | Antibacterial activity grading B7 (Streptomyces scabies) | Mortality grading (kill) (Megoura viceae) | Antibacterial activity grading B3 (Xanthomonas malvacearum) | Mortality grading (kill) [3] | Mortality grading (kill) [4] | Antibacterial activity grading B1 [5] | Amount of disease grading, disease D (Table 4) (Uncinula necator (vine)) | Mortality grading (kill) [6] | Amount of disease grading, disease C (Table 4) [7] | Mortality grading (kill) [8] | Mortality grading (kill) [9] | Amount of disease grading, disease B (Table 4) [10] | Mortality grading (kill), contact test [11] | Mortality grading (kill) [12] | Mortality grading (kill) [13] | Amount of disease grading, disease E (Table 4) [14] | Amount of disease grading, disease A (Table 4) [15] | further results
1 | O=[N+]([O-])c1cc(Cl)c(Nc2c(Cl)c(F)nc(F)c2Cl)cc1Cl [Compound 24, 3,5-Dichloro-2,6-difluoro-4(2,5-dichloro-4nitro-anilino)pyridine] | 0 (O represents less than 30% kill) | 0 (key: O represents less than 30% kill; 1 represents 30 - 49% kill; 2 represents 60 - 90% kill; 3 represents over 90% kill; C indicates a chemosterilant effect.; A indicates an antifeeding effect.) | 3 (0 to 5) | 3 (0 to 5) | 0 (O represents less than 30% kill) | 3 (0 to 5) | 3 (3 represents over 90% kill) | 0 (O represents less than 30% kill) | 3 (0 to 5) | 3 (0 to 5) | 3 (3 represents over 90% kill) | 3 (0 to 5) | 0 (O represents less than 30% kill) | 0 (O represents less than 30% kill) | 3 (0 to 5) | 1 (1 represents 30 - 49% kill) | 0 (key: O represents less than 30% kill; 1 represents 30 - 49% kill; 2 represents 60 - 90% kill; 3 represents over 90% kill; C indicates a chemosterilant effect.; A indicates an antifeeding effect.) | 0 (O represents less than 30% kill) | 0 (61 to 100) | 0 (61 to 100) | Antibacterial activity grading B6 (Pseudomonas syringae): 3 (0 to 5); Antibacterial activity grading B4 (Erwinia carotovora): 3 (0 to 5); Antibacterial activity grading B5 (Xanthomonas oryzae): 3 (0 to 5)
2 | Fc1nc(F)c(Cl)c(Nc2c(F)c(F)c(Br)c(F)c2F)c1Cl [Compound 30, 4(4-Bromo-2,3,5,6-tetrafluoroanilino)-3,5-dichloro-2,6-difluoropyridine] | 0 (O represents less than 30% kill) | 1 (key: O represents less than 30% kill; 1 represents 30 - 49% kill; 2 represents 60 - 90% kill; 3 represents over 90% kill; C indicates a chemosterilant effect.; A indicates an antifeeding effect.) |  |  | 0 (O represents less than 30% kill) |  | 3 (3 represents over 90% kill) | 3 (3 represents over 90% kill) |  | 0 (61 to 100) | 3 (3 represents over 90% kill) | 3 (0 to 5) | 2 (2 represents 60 - 90% kill) | 3 (3 represents over 90% kill) | 1 (26 to 60) | 0 (O represents less than 30% kill) | 0 (key: O represents less than 30% kill; 1 represents 30 - 49% kill; 2 represents 60 - 90% kill; 3 represents over 90% kill; C indicates a chemosterilant effect.; A indicates an antifeeding effect.) | 0 (O represents less than 30% kill) | 0 (61 to 100) | 0 (61 to 100) | % Kill of slugs [16]: 100%
3 | N#Cc1c(F)c(F)c(Nc2c(Cl)c(F)nc(F)c2Cl)c(F)c1C#N [Compound 33, 3,5-Dichloro-4(3,4-dicyano-2,5,6-trifluoroanilino) 2,6-difluoropyridine] | 0 (O represents less than 30% kill) | 1 (key: O represents less than 30% kill; 1 represents 30 - 49% kill; 2 represents 60 - 90% kill; 3 represents over 90% kill; C indicates a chemosterilant effect.; A indicates an antifeeding effect.) | 3 (0 to 5) | 3 (0 to 5) | 0 (O represents less than 30% kill) | 3 (0 to 5) | 0 (O represents less than 30% kill) | 0 (O represents less than 30% kill) | 3 (0 to 5) | 2 (6 to 25) | 3 (3 represents over 90% kill) | 3 (0 to 5) | 2 (2 represents 60 - 90% kill) | 3 (3 represents over 90% kill) | 3 (0 to 5) |  | 0 (key: O represents less than 30% kill; 1 represents 30 - 49% kill; 2 represents 60 - 90% kill; 3 represents over 90% kill; C indicates a chemosterilant effect.; A indicates an antifeeding effect.) | 3 (3 represents over 90% kill) | 3 (0 to 5) | 2 (6 to 25) | Antibacterial activity grading B6 (Pseudomonas syringae): 3 (0 to 5); Antibacterial activity grading B4 (Erwinia carotovora): 3 (0 to 5); Antibacterial activity grading B5 (Xanthomonas oryzae): 3 (0 to 5)
4 | O=[N+]([O-])c1cc(C(F)(F)F)ccc1Nc1c(Cl)c(F)nc(F)c1Cl [Compound 16, 3,5-Dichloro-2,6-difluoro-4(2-nitro-4-trifluoromethylanilino) pyridine] | 0 (O represents less than 30% kill) | 0 (key: O represents less than 30% kill; 1 represents 30 - 49% kill; 2 represents 60 - 90% kill; 3 represents over 90% kill; C indicates a chemosterilant effect.; A indicates an antifeeding effect.) |  |  | 0 (O represents less than 30% kill) |  | 0 (O represents less than 30% kill) | 2 (2 represents 60 - 90% kill) |  |  | 2 (2 represents 60 - 90% kill) |  | 0 (O represents less than 30% kill) | 0 (O represents less than 30% kill) |  | 0 (O represents less than 30% kill) | 0 (key: O represents less than 30% kill; 1 represents 30 - 49% kill; 2 represents 60 - 90% kill; 3 represents over 90% kill; C indicates a chemosterilant effect.; A indicates an antifeeding effect.) | 0 (O represents less than 30% kill) |  |  | Amount of disease grading, disease D (Uncinula necator (vine)): 0 (61 to 100); % Kill of slugs [16]: 50%; Amount of disease grading, disease C [7]: 3 (0 to 5); Amount of disease grading, disease B [10]: 0 (61 to 100); Amount of disease grading, disease E [14]: 0 (61 to 100); Amount of disease grading, disease A [15]: 0 (61 to 100)
